Literature values, collected in EP0965341A2 (priority 1998, dated 1999).

System: Atrial Fibrillation-Induced Electrical Remodeling
Conditions: pretreatment before AF; conclusion quoted from Circulation vol. 96, No.5, Sept. 1997

## CCN(CC)CCNC(=O)c1ccc(N)cc1 [procainamide]
  acute, AF-induced changes in atrial electrophysiological properties: not
